The source made the active and inactive calls.
Assays:
[1] = molecular target: T1, Kappa-type opioid receptor (Homo sapiens, UniProt P41145); format: functional
Beta-galactosidase = Beta-galactosidase (Escherichia coli, UniProt Q8VNN2); format: functional
[2] = molecular target: T1, Kappa-type opioid receptor; format: functional; remark: listed apart in the source
Aminopeptidase N = molecular target: T2, Aminopeptidase N (Plasmodium falciparum FcB1/Columbia, UniProt O96935); experiment: malaria alanyl aminopeptidase activity blockers – biochemical, fluorogenic H-Leu-NHMec substrate, 1536-well (AID 1445); design: species or system Plasmodium falciparum 3D7, 3D7
T2 sequence (O96935 whole entry): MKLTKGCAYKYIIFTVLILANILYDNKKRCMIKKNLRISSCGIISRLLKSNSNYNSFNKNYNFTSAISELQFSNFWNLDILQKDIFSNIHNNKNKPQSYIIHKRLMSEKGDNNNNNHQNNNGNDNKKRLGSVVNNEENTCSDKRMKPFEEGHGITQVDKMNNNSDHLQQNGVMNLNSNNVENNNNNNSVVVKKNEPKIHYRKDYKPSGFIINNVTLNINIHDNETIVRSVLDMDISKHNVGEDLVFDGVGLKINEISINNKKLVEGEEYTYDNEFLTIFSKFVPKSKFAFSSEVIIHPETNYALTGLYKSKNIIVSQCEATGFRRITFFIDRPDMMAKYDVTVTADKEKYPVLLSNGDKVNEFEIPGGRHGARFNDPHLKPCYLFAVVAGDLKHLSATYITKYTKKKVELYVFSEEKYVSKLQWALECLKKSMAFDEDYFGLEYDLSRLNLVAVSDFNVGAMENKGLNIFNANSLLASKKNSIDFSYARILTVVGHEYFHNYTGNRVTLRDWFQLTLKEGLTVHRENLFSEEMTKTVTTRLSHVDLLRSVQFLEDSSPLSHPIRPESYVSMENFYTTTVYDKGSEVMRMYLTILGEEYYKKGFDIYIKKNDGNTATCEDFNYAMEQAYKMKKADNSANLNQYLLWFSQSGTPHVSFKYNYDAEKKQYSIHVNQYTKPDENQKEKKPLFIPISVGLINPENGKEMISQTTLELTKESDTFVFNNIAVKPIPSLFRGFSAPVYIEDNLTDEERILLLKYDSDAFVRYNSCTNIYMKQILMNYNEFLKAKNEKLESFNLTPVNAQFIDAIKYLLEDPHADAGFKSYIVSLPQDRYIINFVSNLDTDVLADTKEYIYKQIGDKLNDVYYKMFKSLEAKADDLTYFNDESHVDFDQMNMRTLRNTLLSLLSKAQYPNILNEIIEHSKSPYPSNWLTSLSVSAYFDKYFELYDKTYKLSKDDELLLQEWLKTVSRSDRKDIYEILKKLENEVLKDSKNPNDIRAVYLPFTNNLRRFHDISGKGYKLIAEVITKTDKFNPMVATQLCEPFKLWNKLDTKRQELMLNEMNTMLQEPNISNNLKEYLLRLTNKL

[3] = molecular target: Induced myeloid leukemia cell differentiation protein Mcl-1 (Homo sapiens, UniProt Q07820); format: functional
Protein RecA = molecular target: T3, Protein RecA (Mycobacterium tuberculosis, UniProt P9WHJ3); experiment: Fluorescence Cell-Free Homogeneous Dose Retest to Identify Inhibitors of RecA-Intein Splicing Activity. [Related pubchem assays (depositor defined):AID2097, AID2223, AID489010, AID492950]; format: functional
T3 sequence (P9WHJ3 whole entry): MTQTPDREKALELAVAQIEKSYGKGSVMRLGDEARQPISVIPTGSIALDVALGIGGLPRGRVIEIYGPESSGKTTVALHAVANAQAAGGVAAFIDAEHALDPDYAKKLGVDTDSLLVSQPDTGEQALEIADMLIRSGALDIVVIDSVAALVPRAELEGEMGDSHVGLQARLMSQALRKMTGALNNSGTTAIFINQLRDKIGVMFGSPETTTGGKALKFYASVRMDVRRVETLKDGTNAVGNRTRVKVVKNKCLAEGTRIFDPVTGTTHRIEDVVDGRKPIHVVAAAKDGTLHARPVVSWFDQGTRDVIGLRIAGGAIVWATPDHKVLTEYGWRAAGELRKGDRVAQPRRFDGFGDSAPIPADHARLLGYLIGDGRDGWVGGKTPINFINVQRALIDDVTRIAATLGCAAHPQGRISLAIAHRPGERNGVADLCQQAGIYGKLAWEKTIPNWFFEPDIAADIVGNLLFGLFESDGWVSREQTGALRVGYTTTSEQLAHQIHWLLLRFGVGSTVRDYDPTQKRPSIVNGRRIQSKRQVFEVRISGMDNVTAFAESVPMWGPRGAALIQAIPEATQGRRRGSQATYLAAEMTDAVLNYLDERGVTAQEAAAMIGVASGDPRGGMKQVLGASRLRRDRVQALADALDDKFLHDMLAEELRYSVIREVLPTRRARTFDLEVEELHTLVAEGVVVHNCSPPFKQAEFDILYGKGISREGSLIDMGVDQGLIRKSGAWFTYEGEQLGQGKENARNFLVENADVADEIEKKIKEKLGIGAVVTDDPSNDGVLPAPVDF

[4] = molecular target: T4, Replicative DNA helicase DnaB (Mycobacterium tuberculosis, UniProt P9WMR3); experiment: DnaB intein splicing inhibitors, dose response, biochemical, cell-free fluorescence (AID 449749); format: functional
T4 sequence (P9WMR3 whole entry): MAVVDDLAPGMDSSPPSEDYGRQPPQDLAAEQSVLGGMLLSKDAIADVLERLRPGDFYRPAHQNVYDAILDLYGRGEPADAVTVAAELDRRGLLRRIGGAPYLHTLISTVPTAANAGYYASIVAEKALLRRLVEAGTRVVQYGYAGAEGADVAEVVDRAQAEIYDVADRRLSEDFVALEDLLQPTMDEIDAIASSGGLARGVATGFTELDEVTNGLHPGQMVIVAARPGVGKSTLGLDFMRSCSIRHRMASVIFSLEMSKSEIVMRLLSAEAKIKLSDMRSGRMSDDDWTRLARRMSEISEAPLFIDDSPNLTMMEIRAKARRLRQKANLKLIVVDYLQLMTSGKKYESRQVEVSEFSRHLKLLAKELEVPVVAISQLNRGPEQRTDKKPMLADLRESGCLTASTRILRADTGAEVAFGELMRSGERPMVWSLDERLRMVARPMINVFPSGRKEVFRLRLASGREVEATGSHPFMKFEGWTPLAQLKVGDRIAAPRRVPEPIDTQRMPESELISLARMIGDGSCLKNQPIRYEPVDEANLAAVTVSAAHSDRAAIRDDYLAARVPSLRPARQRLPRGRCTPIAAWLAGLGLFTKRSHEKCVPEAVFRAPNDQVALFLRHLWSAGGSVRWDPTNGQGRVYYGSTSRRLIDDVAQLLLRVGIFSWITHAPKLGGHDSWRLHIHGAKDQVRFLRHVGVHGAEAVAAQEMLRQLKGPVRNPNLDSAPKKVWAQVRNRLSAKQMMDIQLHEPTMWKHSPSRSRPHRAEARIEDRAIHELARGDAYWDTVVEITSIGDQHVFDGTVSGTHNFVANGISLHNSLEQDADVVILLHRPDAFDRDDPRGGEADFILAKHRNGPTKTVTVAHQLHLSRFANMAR

[5] = NIH-3T3 fibroblast cytotoxicity, dose response, cytotoxicity control, cell-based, fluorescence, Alamar Blue, secondary assay (AID 2327); format: functional;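 note: NIH-3T3 mouse fibroblasts cultured with fluconazole at 8 µg/mL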
[6] = fluconazole-exposed Candida albicans growth modulators – fluorescence, retest, confirmation (AID 2467); format: functional, cell-based
Large T antigen = Large T antigen (Simian virus 40, UniProt P03070); format: functional, Betapolyomavirus macacae;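 note: Confirmatory-stage PubChem screen for compounds that inhibit SV40 T antigen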
[7] = molecular target: Voltage-dependent T-type calcium channel subunit alpha-1H (Homo sapiens, UniProt O95180); format: functional;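 note: channel activity triggered by adding a high calcium stimulation buffer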
Voltage-dependent T-type calcium channel subunit alpha-1H, sequence (O95180 whole entry): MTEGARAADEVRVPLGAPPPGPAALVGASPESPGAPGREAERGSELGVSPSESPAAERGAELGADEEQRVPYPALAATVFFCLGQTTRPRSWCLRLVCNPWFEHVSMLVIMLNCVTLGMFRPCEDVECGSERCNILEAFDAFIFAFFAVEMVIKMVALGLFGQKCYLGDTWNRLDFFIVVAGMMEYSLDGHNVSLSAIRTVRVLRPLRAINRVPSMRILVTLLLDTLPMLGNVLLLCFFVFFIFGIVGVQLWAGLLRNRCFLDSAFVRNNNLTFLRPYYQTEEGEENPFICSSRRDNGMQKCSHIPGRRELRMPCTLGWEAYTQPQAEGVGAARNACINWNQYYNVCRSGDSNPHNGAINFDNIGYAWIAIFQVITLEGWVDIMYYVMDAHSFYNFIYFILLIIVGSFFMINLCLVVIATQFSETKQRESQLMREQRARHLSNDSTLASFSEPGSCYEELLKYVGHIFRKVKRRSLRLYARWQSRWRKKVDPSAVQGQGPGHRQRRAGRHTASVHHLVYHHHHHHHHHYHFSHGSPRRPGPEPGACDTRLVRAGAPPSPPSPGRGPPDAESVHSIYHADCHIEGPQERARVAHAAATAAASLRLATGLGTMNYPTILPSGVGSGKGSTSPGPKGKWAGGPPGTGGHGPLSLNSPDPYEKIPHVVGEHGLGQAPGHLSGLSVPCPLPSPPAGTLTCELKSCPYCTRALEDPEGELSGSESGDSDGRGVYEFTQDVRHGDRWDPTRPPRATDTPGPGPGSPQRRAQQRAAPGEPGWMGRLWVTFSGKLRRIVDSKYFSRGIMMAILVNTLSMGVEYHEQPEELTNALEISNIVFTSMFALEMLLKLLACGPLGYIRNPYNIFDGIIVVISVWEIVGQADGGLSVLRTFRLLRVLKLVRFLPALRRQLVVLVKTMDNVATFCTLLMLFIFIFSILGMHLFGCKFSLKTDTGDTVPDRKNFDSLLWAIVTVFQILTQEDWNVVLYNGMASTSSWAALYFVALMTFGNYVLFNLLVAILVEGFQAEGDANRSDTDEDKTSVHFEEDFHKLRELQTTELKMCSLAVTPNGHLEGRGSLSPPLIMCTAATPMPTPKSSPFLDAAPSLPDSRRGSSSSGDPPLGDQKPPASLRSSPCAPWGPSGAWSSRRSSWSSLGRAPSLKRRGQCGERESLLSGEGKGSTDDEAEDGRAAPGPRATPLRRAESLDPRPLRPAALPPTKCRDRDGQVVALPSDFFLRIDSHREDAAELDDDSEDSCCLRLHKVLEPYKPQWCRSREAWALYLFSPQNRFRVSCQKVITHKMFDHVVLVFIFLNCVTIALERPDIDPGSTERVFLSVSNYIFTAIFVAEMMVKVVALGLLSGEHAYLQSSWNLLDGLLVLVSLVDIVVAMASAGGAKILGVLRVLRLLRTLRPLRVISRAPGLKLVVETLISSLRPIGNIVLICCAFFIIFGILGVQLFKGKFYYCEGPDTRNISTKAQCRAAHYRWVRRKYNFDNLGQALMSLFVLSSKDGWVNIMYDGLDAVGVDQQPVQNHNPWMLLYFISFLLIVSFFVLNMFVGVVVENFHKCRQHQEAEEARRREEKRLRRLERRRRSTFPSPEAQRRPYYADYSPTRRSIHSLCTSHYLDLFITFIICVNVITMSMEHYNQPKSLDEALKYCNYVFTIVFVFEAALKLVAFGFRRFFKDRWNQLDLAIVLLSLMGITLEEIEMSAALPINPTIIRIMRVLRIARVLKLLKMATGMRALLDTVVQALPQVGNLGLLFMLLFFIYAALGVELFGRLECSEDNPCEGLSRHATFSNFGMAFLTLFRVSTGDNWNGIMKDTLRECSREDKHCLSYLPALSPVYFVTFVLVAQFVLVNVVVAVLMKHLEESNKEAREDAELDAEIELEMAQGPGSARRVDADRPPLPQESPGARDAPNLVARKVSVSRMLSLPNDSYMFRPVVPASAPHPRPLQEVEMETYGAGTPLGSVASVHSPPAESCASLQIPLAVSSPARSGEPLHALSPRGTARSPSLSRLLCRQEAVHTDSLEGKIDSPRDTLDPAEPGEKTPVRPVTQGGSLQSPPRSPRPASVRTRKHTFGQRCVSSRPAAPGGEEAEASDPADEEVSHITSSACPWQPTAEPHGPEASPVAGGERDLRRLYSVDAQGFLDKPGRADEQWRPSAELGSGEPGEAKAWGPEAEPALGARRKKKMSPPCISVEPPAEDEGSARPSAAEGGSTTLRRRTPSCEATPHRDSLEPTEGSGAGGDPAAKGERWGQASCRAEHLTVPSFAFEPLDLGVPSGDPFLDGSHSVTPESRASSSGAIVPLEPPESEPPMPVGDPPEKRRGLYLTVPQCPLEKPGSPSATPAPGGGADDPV

Bcl-2-like protein 10 = molecular target: T5, Bcl-2-like protein 10 (Homo sapiens, UniProt Q9HD36); experiment: Bcl-B/TR3 peptide binding disruption – biochemical, fluorescence polarization, FITC-TR3 peptide, selectivity assay for Bfl-1 inhibitor project, primary screen (AID 748);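 note: fluorescence polarization from a fluorescein-labelled TR3 peptide binding purified Bcl-B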
T5 sequence (Q9HD36 whole entry): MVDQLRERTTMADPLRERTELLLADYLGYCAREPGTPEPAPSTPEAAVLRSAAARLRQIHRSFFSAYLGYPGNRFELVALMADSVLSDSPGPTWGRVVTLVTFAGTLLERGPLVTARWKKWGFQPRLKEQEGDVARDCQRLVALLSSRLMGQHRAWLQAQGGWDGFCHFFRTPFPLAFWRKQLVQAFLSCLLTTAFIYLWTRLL

[8] = molecular target: DNA dC->dU-editing enzyme APOBEC-3G (Homo sapiens, UniProt Q9HC16); experiment: Dose Response confirmation of small molecule APOBEC3G DNA Deaminase Inhibitors via a fluorescence-based single-stranded DNA deaminase assay. [Related pubchem assays (depositor defined):AID493012, AID493028]; format: functional
DNA dC->dU-editing enzyme APOBEC-3G, sequence (Q9HC16 whole entry): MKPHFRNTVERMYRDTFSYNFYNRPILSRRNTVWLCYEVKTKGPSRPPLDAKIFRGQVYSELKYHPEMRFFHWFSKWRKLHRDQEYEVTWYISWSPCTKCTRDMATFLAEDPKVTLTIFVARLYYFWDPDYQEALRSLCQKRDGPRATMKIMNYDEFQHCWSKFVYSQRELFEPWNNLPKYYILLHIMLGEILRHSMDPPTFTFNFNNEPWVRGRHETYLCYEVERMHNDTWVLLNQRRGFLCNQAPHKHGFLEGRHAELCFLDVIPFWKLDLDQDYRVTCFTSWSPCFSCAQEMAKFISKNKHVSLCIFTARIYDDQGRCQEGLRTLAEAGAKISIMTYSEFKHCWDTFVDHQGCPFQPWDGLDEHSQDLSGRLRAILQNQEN

Trypsin = Trypsin (Sus scrofa, UniProt P00761); experiment: trypsin protease activity blockade – biochemical, quenched peptide fluorescence, cherry-pick, selectivity assay for Rce1 protease inhibitor project, dose response (AID 488789)
Kallikrein-7 = Kallikrein-7 (Homo sapiens, UniProt P49862); experiment: Fluorescence Intensity-based biochemical primary high throughput dose response assay to identify activators of kallikrein-7 (K7) zymogen.
Kallikrein-7, sequence (P49862 whole entry): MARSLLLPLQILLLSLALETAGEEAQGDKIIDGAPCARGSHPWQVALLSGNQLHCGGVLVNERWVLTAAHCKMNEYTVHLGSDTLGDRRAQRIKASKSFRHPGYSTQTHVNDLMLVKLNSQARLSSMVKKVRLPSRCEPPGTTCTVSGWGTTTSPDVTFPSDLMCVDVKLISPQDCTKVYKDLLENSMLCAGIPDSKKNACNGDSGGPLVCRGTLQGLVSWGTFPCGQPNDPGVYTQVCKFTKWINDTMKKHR

[9] = molecular target: T6, Short transient receptor potential channel 4 (Mus musculus, UniProt Q9QUQ5); experiment: block of DAMGO-driven TRPC4 calcium entry – cell-based, HEK293 TRPC4/mu-opioid, Fluo-4 calcium, dose response (AID 434942); format: functional;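 note: potency of inhibitors blocking the TRPC4 calcium response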
T6 sequence (Q9QUQ5 whole entry): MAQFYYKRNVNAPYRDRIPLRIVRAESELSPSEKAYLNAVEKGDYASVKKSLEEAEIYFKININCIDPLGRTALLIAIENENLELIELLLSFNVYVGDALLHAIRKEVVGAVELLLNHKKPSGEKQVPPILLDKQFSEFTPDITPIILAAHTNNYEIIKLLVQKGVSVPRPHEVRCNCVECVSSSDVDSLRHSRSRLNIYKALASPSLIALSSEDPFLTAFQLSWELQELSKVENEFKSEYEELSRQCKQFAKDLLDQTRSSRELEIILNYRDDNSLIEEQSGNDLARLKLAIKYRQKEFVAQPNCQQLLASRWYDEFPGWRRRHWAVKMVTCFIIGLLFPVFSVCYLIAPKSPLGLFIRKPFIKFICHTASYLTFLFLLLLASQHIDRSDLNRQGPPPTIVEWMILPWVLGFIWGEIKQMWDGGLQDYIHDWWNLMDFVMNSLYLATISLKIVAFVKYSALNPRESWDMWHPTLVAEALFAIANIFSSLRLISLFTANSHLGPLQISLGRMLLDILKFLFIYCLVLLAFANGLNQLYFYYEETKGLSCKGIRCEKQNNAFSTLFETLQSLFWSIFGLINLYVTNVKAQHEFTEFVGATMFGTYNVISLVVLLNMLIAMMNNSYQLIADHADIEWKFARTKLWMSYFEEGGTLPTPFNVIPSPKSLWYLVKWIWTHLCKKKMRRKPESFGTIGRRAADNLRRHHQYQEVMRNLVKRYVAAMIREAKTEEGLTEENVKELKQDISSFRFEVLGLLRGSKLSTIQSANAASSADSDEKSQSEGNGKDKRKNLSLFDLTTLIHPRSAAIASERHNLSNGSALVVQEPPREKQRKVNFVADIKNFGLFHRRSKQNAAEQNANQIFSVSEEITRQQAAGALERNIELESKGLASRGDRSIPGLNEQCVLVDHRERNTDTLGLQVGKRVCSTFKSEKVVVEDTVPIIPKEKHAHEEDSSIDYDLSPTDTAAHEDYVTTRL

[10] = NIH3T3 cell viability loss – ATP luminescence, mouse fibroblasts, counter-screen, dose response (AID 2010); format: functional, cell-based;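 note: cells exposed to compound for about 90 hours before reading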
[11] = Trypanosoma cruzi growth suppression in host cells – NIH3T3 host cells, beta-gal luminescence, confirmation (AID 2044); format: functional, cell-based;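 note: intracellular parasites grown in NIH/3T3 mouse fibroblasts as host cells; luminescent beta-galactosidase reporter signal from transgenic T. cruzi replicating inside host cells; inhibitors lower the luminescence signal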
Estrogen receptor beta [12] = molecular target: T7, Estrogen receptor beta (Homo sapiens, UniProt Q92731); experiment: blockers of SRC-3 recruitment to ERβ – biochemical, ELISA, streptavidin-HRP readout, orthogonal assay, confirmation (AID 1060)
T7 sequence (Q92731 whole entry): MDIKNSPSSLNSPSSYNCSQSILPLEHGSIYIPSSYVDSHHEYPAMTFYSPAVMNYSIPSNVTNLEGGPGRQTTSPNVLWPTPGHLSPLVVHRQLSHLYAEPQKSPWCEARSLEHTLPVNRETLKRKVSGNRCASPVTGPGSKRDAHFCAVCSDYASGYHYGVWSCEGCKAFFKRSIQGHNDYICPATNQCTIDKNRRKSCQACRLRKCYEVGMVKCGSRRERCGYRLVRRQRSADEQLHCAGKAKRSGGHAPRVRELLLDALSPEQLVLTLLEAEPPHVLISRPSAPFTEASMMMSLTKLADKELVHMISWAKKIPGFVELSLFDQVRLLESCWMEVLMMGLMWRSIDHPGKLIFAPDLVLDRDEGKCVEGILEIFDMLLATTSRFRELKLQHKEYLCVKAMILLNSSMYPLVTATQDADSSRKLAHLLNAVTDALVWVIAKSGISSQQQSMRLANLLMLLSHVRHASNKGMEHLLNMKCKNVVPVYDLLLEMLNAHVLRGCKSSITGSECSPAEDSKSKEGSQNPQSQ

Estrogen receptor beta [13] = molecular target: T7, Estrogen receptor beta

T1 sequence (P41145 whole entry): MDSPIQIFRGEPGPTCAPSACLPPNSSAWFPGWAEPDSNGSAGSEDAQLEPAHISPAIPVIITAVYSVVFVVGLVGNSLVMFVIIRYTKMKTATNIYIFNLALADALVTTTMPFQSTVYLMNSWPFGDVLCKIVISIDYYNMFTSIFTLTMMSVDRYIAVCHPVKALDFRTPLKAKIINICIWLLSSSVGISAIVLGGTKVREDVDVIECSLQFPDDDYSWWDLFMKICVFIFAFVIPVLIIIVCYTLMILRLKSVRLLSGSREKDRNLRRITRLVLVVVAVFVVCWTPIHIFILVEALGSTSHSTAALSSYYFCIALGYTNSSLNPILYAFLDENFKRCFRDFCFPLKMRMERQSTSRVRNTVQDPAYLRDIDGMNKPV
Beta-galactosidase, sequence (Q8VNN2 whole entry): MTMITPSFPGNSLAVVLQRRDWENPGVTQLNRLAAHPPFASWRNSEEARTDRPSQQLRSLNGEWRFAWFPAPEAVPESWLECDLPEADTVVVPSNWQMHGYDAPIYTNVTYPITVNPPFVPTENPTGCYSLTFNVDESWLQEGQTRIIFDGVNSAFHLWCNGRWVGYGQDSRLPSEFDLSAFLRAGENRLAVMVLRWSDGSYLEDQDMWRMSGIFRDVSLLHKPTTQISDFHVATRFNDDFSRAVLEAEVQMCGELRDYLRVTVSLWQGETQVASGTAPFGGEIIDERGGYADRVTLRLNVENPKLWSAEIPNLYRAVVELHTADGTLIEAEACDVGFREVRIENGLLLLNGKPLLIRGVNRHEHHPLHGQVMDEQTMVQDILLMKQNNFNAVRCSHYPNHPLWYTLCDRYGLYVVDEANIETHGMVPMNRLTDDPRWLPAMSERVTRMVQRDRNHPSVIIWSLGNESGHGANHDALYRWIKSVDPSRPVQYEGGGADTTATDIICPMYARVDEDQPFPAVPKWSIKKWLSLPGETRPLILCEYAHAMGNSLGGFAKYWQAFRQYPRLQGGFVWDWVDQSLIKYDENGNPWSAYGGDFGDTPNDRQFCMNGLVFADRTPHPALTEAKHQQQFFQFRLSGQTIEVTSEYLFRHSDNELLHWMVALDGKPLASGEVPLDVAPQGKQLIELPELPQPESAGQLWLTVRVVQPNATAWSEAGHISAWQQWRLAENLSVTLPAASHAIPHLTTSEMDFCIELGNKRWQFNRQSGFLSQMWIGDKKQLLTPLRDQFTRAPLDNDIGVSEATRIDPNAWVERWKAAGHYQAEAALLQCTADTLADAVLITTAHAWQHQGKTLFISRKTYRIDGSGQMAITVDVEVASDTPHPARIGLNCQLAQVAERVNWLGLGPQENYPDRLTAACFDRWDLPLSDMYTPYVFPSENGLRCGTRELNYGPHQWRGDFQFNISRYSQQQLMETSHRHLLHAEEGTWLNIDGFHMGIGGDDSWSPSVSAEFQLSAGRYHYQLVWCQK

What does the source list for `Cc1sc(Cc2nc(O)cs2)nc1-c1ccccc1`?
IC50 [1]: > 32 µM; EC50 (Beta-galactosidase): > 31.5 µM (inactive); IC50 [2]: 15.6 µM (active)

For `O=C(O)COc1ccccc1C(Nc1cccnc1)c1cc(Cl)c2cccnc2c1O` (stereo not drawn), which IC50 (Aminopeptidase N) is on record?
The IC50 was 38.4 µM (active).

And the IC50 [3]?
The IC50 was 1.71 µM (active).

And the EC50 (Protein RecA)?
The EC50 was 11.8 µM (active).

And the AC50 [4]?
The AC50 was > 380 µM (inactive).

What about the EC50 [5] of the same molecule?
Its EC50 is > 150 µM (inactive).

What about the EC50 [6] of the same molecule?
Its EC50 is > 38 µM (not active).

And the IC50 (Large T antigen)?
Its IC50 is 10.3 µM (active).

Which EC50 [7] does the source give for `Oc1ccccc1C1=Nc2nc3ccccc3n2C(c2ccccc2)C1` (stereo not drawn) here?
The EC50 was 6.95 µM (active).

Which IC50 (Bcl-2-like protein 10) does the source give for `COC(=O)C1=C(C)N(c2ccccc2)/C(=C/c2cccs2)C1=O` here?
Its IC50 is > 50 µM (inactive).

With `O=S(=O)(c1ccccc1)N(F)S(=O)(=O)c1ccccc1` as the molecule, how does the IC50 [8] read?
Its IC50 is 55.3 µM (active).

Which EC50 [7] does the source give for `CCc1ccc(S(=O)(=O)NCCc2csc(-c3ccccc3)n2)s1` here?
The EC50 was 4.22 µM (active).

For `COc1ccc(N(CC(=O)Nc2cccc(C(F)(F)F)c2)S(C)(=O)=O)cc1`, which EC50 [7] is on record?
Its EC50 is 7.98 µM (active).

Which IC50 (Bcl-2-like protein 10) does the source give for `CCCC1=C(C(=O)OCC)C(c2cc(Cl)cc(OC)c2OCC(=O)OCC)NC(=O)N1` (stereo not drawn) here?
Its IC50 is > 100 µM (inactive).

Which results are given for `O=C1NC(c2ccc(Br)cc2)Nc2ccccc21` (stereo not drawn)?
AC50 (Trypsin): 15.3 µM (active); EC50 (Kallikrein-7): > 69.5 µM (inactive)

With `Cc1nc2scc(-c3ccccc3)c2c(=O)n1N=C1C=CC(=O)C=C1` as the molecule, how does the EC50 [9] read?
The EC50 was 5.96 µM (active).

What about the EC50 [10] of the same molecule?
The EC50 was 7.47 µM (active).

And the IC50 [8]?
The IC50 was 9.73 µM (active).

And the EC50 [11]?
Its EC50 is 2.23 µM (active).

What about the IC50 [1] of the same molecule?
Its IC50 is 16.5 µM.

What about the EC50 (Beta-galactosidase) of the same molecule?
Its EC50 is > 31.5 µM (inactive).

What about the IC50 [2] of the same molecule?
The IC50 was 9.24 µM (active).

With `CSc1ccccc1NC(=O)c1noc2c1CCC2` as the molecule, how does the IC50 (Estrogen receptor beta [12]) read?
The IC50 was > 50 µM (not active).

And the IC50 (Bcl-2-like protein 10)?
Its IC50 is 12.6 µM (active).

And the IC50 (Estrogen receptor beta [13])?
The IC50 was 3.77 µM (active).

Source: ChEMBL document CHEMBL1201862, “PubChem BioAssay data set” (2004)
